Experimental data taken from US20260174875A1 (Novo Nordisk A/S, priority 2023, published 2026).
Where two headings read alike, the source gives them in different places. Numbered stars: 1 amine (or outer) side, 2 acyl side, 3 side chain; on linkers, the order of the positions; unused ones are H or OH. Square brackets hold non-standard residues; d marks the D form. Side chains are listed from the residue outwards. * marks the point of attachment. C18 diacid = O=C(O)CCCCCCCCCCCCCCCCC(=O)*; γGlu = O=C(O)[C@H](CCC(=O)[*:2])N[*:1]; AEEA = NCCOCCOCC(=O)O; Aib = CC(C)(N)C(=O)O

Columns and labels:
[1] = target: T1, human GLP-1 receptor (hGLP-1R) (Homo sapiens, UniProt P43220); experiment: GLP-1 receptor assay, method A (CRE-luciferase reporter, BHK cells); assay type: cell-based
T1 construct: expressed in transfected cells
T1 sequence (P43220 24-463): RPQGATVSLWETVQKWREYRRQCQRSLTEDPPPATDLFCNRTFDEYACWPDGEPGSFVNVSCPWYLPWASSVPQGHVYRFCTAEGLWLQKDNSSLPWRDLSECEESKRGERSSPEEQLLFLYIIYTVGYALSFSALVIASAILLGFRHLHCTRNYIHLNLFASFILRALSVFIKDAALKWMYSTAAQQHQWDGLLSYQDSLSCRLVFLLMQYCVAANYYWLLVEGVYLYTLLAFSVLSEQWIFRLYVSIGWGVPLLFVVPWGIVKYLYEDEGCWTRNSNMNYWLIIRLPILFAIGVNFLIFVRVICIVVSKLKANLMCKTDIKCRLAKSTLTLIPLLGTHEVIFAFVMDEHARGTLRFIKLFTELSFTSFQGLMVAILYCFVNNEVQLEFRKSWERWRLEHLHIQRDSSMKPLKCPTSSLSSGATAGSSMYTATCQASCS
Summary of the method: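 hGLP-1R BHK CRE-Luc cells, thawed, in DMEM (no phenol red)/10 mM HEPES/1% ovalbumin/0.1% Pluronic F-68 ± 1% (w/v) HSA; 3 h, 37° C, 5% CO2; steadylite Plus, 30 min RT, luminescence.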

[2] = target: T2, human GIP receptor (hGIPR) (Homo sapiens, UniProt P48546); experiment: GIP receptor assay, method A (CRE-luciferase reporter, BHK cells); assay type: cell-based
T2 construct: expressed in transfected cells
T2 sequence (P48546 22-466): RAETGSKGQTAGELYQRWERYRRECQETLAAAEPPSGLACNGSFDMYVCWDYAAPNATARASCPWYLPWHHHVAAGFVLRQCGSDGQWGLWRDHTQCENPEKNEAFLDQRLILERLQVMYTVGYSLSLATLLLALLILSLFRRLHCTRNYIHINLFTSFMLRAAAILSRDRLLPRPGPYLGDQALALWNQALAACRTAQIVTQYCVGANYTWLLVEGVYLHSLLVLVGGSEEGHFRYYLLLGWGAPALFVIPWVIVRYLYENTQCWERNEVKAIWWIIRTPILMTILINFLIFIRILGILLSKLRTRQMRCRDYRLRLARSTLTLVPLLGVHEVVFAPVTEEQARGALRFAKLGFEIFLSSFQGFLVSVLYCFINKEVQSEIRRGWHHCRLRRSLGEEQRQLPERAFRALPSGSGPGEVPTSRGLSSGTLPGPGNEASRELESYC
Summary of the method: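 BHK cells co-expressing hGIPR and a CRE-luciferase reporter, plated 21-23 h before assay, stimulated 3 h at 37 °C with compounds (7-point 10-fold titration, duplicates) in ovalbumin-containing DMEM buffer with or without 1% HSA final. Luminescence read; EC50 (pM) from four-parameter logistic fit with shared Hill slope.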

[3] = target: T3, human amylin receptor (hAMYR3) (Homo sapiens, UniProt O60896+P30988); experiment: Amylin receptor assay, method A (CRE-luciferase reporter, BHK cells); assay type: cell-based
T3 construct: host or cells: BHK cells (Hollex-1 line expressing hCTR(a) and CRE-Luc), further transfected with human RAMP3
T3 sequence (P30988 25-474): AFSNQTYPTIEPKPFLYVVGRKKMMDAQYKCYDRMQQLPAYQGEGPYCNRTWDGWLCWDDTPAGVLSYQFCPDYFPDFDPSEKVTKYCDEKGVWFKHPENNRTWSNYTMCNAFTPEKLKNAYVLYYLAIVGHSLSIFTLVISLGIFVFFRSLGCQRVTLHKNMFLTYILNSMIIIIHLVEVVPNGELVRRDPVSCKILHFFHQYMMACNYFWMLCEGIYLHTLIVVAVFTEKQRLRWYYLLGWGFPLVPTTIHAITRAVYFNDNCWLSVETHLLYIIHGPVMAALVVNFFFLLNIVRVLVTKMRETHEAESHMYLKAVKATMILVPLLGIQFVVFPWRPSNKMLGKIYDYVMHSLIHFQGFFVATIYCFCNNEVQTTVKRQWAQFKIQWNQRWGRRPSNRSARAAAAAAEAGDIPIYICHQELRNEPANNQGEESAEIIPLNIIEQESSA
T3 sequence (O60896 24-148): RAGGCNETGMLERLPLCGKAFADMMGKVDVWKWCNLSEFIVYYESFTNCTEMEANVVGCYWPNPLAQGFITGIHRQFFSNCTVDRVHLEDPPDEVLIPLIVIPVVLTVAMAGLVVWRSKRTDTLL

[4] = Chemical stability assessment in formulation (UPLC-UV-MS purity loss at 37° C.); assay type: physicochemical; conditions: 8 mM phosphate buffer pH 7.4, 1 mg/mL, 2 weeks
Summary of the method: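 Peptides at target 1 mg/mL in 8 mM phosphate buffer, pH adjusted to 7.4, incubated in capped vials at 37° C. and sampled over 2 weeks, frozen until analysis. Purity followed by UPLC-UV-MS with a 0.1% formic acid water/acetonitrile gradient.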

[5] = hGLP-1R Potency, 1% HSA, EC50, method A, in the presence of 1% HSA
[6] = method A, absence of HSA, read-out: hGLP-1R Potency, no HSA, EC50
[7] = hGIPR Potency, 1% HSA, EC50, method A, in the presence of 1% HSA
[8] = method A, absence of HSA, read-out: hGIPR Potency, no HSA, EC50
[9] = hAMYR3 Potency, 1% HSA, EC50, method A, in the presence of 1% HSA
[10] = method A, absence of HSA, read-out: hAMYR3 Potency, no HSA, EC50

EC50 [1, 5] [pM] | EC50 [1, 6] [pM] | EC50 [2, 7] [pM] | EC50 [2, 8] [pM] | EC50 [3, 9] [pM] | EC50 [3, 10] [pM] | Purity loss per week at 37° C. [4] [%] | Compound
25.9 | 3.31 | 11.6 | 3 | 175 | 4.41 | 2.9 | H[Aib]HGTFTSDYSILLEEQAAREFIEWLLAGGPSSGEASHLSTAQTQRLSAELHRLATLPK([AEEA-AEEA-γGlu-C18 diacid])TETGSGSP-NH2 [Compound 84]
30.3 | 3.52 | 14.6 | 2.71 | 250 | 4.4 | 2.0 | H[Aib]HGTFTSDYSILLEEQAAREFIEWLLAGGPSSGEASHLSTAQTQRLSAELHK([AEEA-AEEA-γGlu-C18 diacid])LATLPRTETGSGAP-NH2 [Compound 85]
54.1 | 4.55 | 96.5 | 4.98 | 61.5 | 1.99 | 2.8 | H[Aib]HGTFTSDYSILLEEQAAREFIEWLLAGGPSK([AEEA-AEEA-γGlu-C18 diacid])GEASQLSTAALGRLSAELHRLATLPRTETGSGSP-NH2 [Compound 73]
67.5 | 3.15 | 162 | 2.02 | 55.8 | 2.57 | 2.6 | H[Aib]HGTFTSDYSILLEEQAAREFIEWLLAGGPSK([AEEA-AEEA-γGlu-C18 diacid])GAGQAPGQAPGASHLSTAQTQRLSAELHELATLPRTETGSGSP-NH2 [Compound 47]
100 | 4.86 | 118 | 1.89 | 127 | 2.84 | 2.1 | H[Aib]HGTFTSDYSILLEEQAAREFIEWLLAGGPSK([AEEA-AEEA-γGlu-C18 diacid])GEASQLSTAALGRLSAELHGLATLPRTETGSGSP-NH2 [Compound 65]
9.89 | 2.3 | 13.6 | 2.92 | 45.7 | 2.9 | 2.3 | H[Aib]HGTFTSDYSILLEEQAAREFIEWLLAGGPSSGEASHLSTAQTQRLSAELHRLK([AEEA-AEEA-γGlu-C18 diacid])TLPRTETGSGSP-NH2 [Compound 83]
13.4 | 2.55 | 8.53 | 3.12 | 75.1 | 2.64 | 2.8 | H[Aib]HGTFTSDYSILLEEQAAREFIEWLLAGGPSSGAGQAPGQAPGASHLSTAQTQRLSAELHRLATLPK([AEEA-AEEA-γGlu-C18 diacid])TETGSGSP-NH2 [Compound 92]
– | – | – | – | – | – | 1.0 | CC[C@H](C)[C@H](NC(=O)[C@H](CCC(=O)O)NC(=O)[C@H](CCC(=O)O)NC(=O)[C@H](CC(C)C)NC(=O)[C@H](CC(C)C)NC(=O)[C@H](CCCCNC(=O)COCCOCCNC(=O)COCCOCCNC(=O)CC[C@H](NC(=O)CCCCCCCCCCCCCCCCCCC(=O)O)C(=O)O)NC(=O)[C@H](CO)NC(=O)[C@H](Cc1ccc(O)cc1)NC(=O)[C@H](CC(=O)O)NC(=O)[C@H](CO)NC(=O)[C@@H](NC(=O)[C@H](Cc1ccccc1)NC(=O)[C@@H](NC(=O)CNC(=O)[C@H](CCC(=O)O)NC(=O)C(C)(C)NC(=O)[C@@H](N)Cc1ccc(O)cc1)[C@@H](C)O)[C@@H](C)O)C(=O)N[C@@H](C)C(=O)N[C@@H](C)C(=O)N[C@@H](CCCNC(=N)N)C(=O)N[C@@H](CCC(=O)O)C(=O)N[C@@H](Cc1ccccc1)C(=O)N[C@H](C(=O)N[C@@H](CCC(=O)O)C(=O)N[C@@H](Cc1c[nH]c2ccccc12)C(=O)N[C@@H](CC(C)C)C(=O)N[C@@H](CC(C)C)C(=O)N[C@@H](C)C(=O)NCC(=O)NCC(=O)N1CCC[C@H]1C(=O)N[C@@H](CO)C(=O)N[C@@H](CO)C(=O)NCC(=O)N[C@@H](C)C(=O)NCC(=O)N[C@@H](CCC(N)=O)C(=O)N[C@@H](C)C(=O)N1CCC[C@H]1C(=O)NCC(=O)N[C@@H](CCC(N)=O)C(=O)N[C@@H](C)C(=O)N1CCC[C@H]1C(=O)NCC(=O)N[C@@H](C)C(=O)N[C@@H](CO)C(=O)N[C@@H](Cc1c[nH]cn1)C(=O)N[C@@H](CC(C)C)C(=O)N[C@@H](CO)C(=O)N[C@H](C(=O)N[C@@H](C)C(=O)N[C@@H](CCC(N)=O)C(=O)N[C@@H](CC(C)C)C(=O)NCC(=O)N[C@@H](CCCNC(=N)N)C(=O)N[C@@H](CC(C)C)C(=O)N[C@@H](CO)C(=O)N[C@@H](C)C(=O)N[C@@H](CCC(=O)O)C(=O)N[C@@H](CC(C)C)C(=O)N[C@@H](Cc1c[nH]cn1)C(=O)N[C@@H](CCC(N)=O)C(=O)N[C@@H](CC(C)C)C(=O)N[C@@H](C)C(=O)N[C@H](C(=O)N[C@@H](CC(C)C)C(=O)N1CCC[C@H]1C(=O)N[C@@H](CCCNC(=N)N)C(=O)N[C@H](C(=O)N[C@@H](CCC(=O)O)C(=O)N[C@H](C(=O)NCC(=O)N[C@@H](CO)C(=O)NCC(=O)N[C@@H](CO)C(=O)N1CCC[C@H]1C(N)=O)[C@@H](C)O)[C@@H](C)O)[C@@H](C)O)[C@@H](C)O)[C@@H](C)CC [Compound 123]
